Results as given in patent US6410054B1, “Immediate release eplerenone compositions” (G. D. Searle & Co., priority 1998, dated 2002).

Experiments:
[1] = Single dose study: plasma pharmacokinetics of eplerenone, open lactone ring form, spironolactone
Procedure: The pharmacokinetics, safety and antialdosterone activity of single 10, 50, 100, 300 and 1000 mg oral doses of eplerenone were evaluated in a single-center, randomized, double-blind, placebo-controlled study.
The study employed seven parallel dose groups of eight healthy male humans.
The eplerenone capsules administered corresponded to the capsules (or combinations of the capsules) disclosed in Examples 4, 5, 7 and 8 above. The placebo was a conventional capsule containing lactose. […] The fludrocortisone used in the study consisted of commercially available fludrocortisone tablets (Florinef®, Squibb BV).
(§1) The subjects, who underwent a ten hour food fast prior to administration of the dose, received a single oral dose of one of the study medications together with about 180 mL of water at 0800 hours. […] Each dose of fludrocortisone was administered with 150 mL of water except for the 1.0 mg dose which was administered with 200 mL of water.
(§2) The plasma samples collected from subjects dosed with eplerenone were assayed for concentrations of eplerenone and the open lactone ring form of eplerenone. […] A subset of plasma samples was also assayed for testosterone levels. The urine collected was analyzed to determine concentrations and amounts of eplerenone and the open lactone ring form of eplerenone, the amount of sodium and potassium excreted, and the urinary log10 (sodium/potassium) ratio.

aldosterone receptors [2] = target: T1, aldosterone receptors (Homo sapiens, UniProt P08235); experiment: Single dose study: antialdosterone activity, urinary sodium and potassium after fludrocortisone; assay type: in vivo, humans; details: 50 mg dose
T1 construct: endogenous in cells; host or cells: healthy male human subjects (in vivo)
T1 sequence (P08235 1-984): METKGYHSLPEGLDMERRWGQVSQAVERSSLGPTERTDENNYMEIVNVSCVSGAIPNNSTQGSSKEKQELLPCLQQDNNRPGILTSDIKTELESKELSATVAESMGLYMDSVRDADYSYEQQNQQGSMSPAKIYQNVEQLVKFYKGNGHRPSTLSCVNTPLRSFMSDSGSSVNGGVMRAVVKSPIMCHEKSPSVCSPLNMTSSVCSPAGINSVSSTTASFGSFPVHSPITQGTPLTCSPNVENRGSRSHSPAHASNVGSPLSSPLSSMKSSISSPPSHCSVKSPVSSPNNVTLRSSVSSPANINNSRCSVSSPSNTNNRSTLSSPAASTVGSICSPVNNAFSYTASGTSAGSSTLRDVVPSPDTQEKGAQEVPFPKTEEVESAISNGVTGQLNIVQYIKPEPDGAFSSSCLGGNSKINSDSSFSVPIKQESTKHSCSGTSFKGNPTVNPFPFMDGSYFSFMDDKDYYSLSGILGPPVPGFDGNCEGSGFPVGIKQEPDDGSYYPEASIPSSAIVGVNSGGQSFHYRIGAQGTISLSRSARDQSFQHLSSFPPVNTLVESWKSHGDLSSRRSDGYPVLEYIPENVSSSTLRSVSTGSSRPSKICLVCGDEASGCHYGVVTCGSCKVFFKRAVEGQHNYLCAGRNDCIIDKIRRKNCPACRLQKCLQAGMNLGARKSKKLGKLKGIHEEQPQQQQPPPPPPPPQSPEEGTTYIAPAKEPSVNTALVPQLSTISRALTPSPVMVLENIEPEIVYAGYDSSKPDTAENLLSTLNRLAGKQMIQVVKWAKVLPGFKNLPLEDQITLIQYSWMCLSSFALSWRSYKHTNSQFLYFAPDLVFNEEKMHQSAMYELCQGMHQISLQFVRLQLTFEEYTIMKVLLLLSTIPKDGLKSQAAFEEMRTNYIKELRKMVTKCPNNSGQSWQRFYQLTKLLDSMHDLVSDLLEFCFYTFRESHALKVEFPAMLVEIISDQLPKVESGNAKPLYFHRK
Procedure: Antialdosterone activity was determined based on urine levels of sodium and potassium following repeated administration of fludrocortisone. Safety was determined on the basis of laboratory tests, vital signs, and the occurrence and types of adverse events.
as §1, §2

aldosterone receptors [3] = target: T1, aldosterone receptors; experiment: Multiple dose study: antialdosterone activity, urinary log10 (sodium/potassium); assay type: in vivo, humans; details: multiple dose administration
Procedure: Multiple oral dose tolerability and the pharmacokinetics of several dosages of eplerenone were evaluated in a double-blind, randomized, placebo-controlled, rising oral dose, sequential panel study of 40 healthy male subjects (five groups of eight subjects). The study medication was administered in three sequential dose panels, with each panel including eplerenone, spironolactone and placebo. […] The 100 mg and 200 mg dose capsules corresponded to those described in Examples 7 and 8, respectively. […] Antialdosterone activity was determined following a fludrocortisone challenge on Days 12-13.

blood pressure = experiment: Treatment of hypertension study: blood pressure; assay type: in vivo, humans; details: 50 mg BID; eight weeks
Procedure: (§3) The safety and efficacy of a range of doses of eplerenone in the treatment of hypertension relative to placebo were evaluated in a multi-center, randomized, double-blind, placebo-lead-in, parallel group study. […] The primary efficacy variable was the change in cuff diastolic blood pressure (ADBP; sitting) measured at trough plasma levels after eight weeks of double blind treatment. The secondary variables measured were the change in trough cuff systolic blood pressure (ΔSBP; sitting), change in 24 hour mean diastolic blood pressure (ΔDBP), and change in 24 hour mean systolic blood pressure (ΔSBP). The primary and secondary efficacy variables were analyzed to compare BID versus QD dosing regimens for each eplerenone dose group, and both eplerenone and spironolactone versus placebo. Changes in plasma renin and serum aldosterone after eight weeks of dosing were also analyzed as secondary measures of efficacy.
The specific pharmaceutical compositions of each eplerenone capsule are reported in Examples 5, 6, 7 and 8. The placebo was a conventional capsule containing lactose.

renin and aldosterone = experiment: Treatment of hypertension study: plasma renin and serum aldosterone; assay type: in vivo, humans
Procedure: as §3, with “study. […] Four hundred and seventeen patients were randomized to one of eight treatments: (i) placebo BID; […] (iv) eplerenone 400 mg QD; (v) eplerenone 25 mg BID;” for “study.”, “The primary and secondary efficacy variables were analyzed to compare BID versus QD dosing regimens for each eplerenone dose group, and both eplerenone and spironolactone versus placebo.” left out

CC(=O)S[C@@H]1CC2=CC(=O)CC[C@]2(C)[C@H]2CC[C@@]3(C)[C@@H](CC[C@@]34CCC(=O)O4)[C@H]12 [spironolactone, Spironolactone, reference compound]
Plasma Concentration Of Spironolactone ([1]; 50 mg single oral dose, -0.25 h (predose)): 0 ng/mL | concentration at 0.5 h ([1]; male, human, plasma, po, 50 mg): 10.5 ng/mL | concentration at 1 h ([1]; male, human, plasma, po, 50 mg): 23.6 ng/mL | concentration at 2 h ([1]; male, human, plasma, po, 50 mg): 14.4 ng/mL | concentration at 3 h ([1]; male, human, plasma, po, 50 mg): 14.3 ng/mL | concentration at 4 h ([1]; male, human, plasma, po, 50 mg): 4.8 ng/mL | concentration at 6 h ([1]; male, human, plasma, po, 50 mg): 0 ng/mL | concentration at 8 h ([1]; male, human, plasma, po, 50 mg): 0 ng/mL | concentration at 12 h ([1]; male, human, plasma, po, 50 mg): 0 ng/mL | concentration at 16 h ([1]; male, human, plasma, po, 50 mg): 0 ng/mL | concentration at 24 h ([1]; male, human, plasma, po, 50 mg): 0 ng/mL | concentration at 28 h ([1]; male, human, plasma, po, 50 mg): 0 ng/mL | concentration at 32 h ([1]; male, human, plasma, po, 50 mg): 0 ng/mL | concentration at 48 h ([1]; male, human, plasma, po, 50 mg): 0 ng/mL | concentration at 72 h ([1]; male, human, plasma, po, 50 mg): 0 ng/mL | concentration at 96 h ([1]; male, human, plasma, po, 50 mg): 0 ng/mL | Urinary Potassium Excretion (aldosterone receptors [2]; 0 to 2 hours): 7.5 mmol | Urinary Sodium Excretion (aldosterone receptors [2]; 0 to 2 hours): 4.1 mmol | Urinary Potassium Excretion (aldosterone receptors [2]; 2 to 4 hours): 11.8 mmol | Urinary Sodium Excretion (aldosterone receptors [2]; 2 to 4 hours): 8.5 mmol | Urinary Potassium Excretion (aldosterone receptors [2]; 4 to 6 hours): 10.2 mmol | Urinary Sodium Excretion (aldosterone receptors [2]; 4 to 6 hours): 9.4 mmol | Urinary Potassium Excretion (aldosterone receptors [2]; 6 to 8 hours): 13.3 mmol | Urinary Sodium Excretion (aldosterone receptors [2]; 6 to 8 hours): 14.8 mmol | Urinary Potassium Excretion (aldosterone receptors [2]; 8 to 10 hours): 17.9 mmol | Urinary Sodium Excretion (aldosterone receptors [2]; 8 to 10 hours): 13.4 mmol | Urinary Potassium Excretion (aldosterone receptors [2]; 10 to 12 hours): 12.5 mmol | Urinary Sodium Excretion (aldosterone receptors [2]; 10 to 12 hours): 8.4 mmol | Urinary Potassium Excretion (aldosterone receptors [2]; 12 to 14 hours): 20.6 mmol | Urinary Sodium Excretion (aldosterone receptors [2]; 12 to 14 hours): 11.5 mmol | Urinary Potassium Excretion (aldosterone receptors [2]; 14 to 16 hours): 11.4 mmol | Urinary Sodium Excretion (aldosterone receptors [2]; 14 to 16 hours): 5.9 mmol | Urinary Potassium Excretion (aldosterone receptors [2]; 16 to 24 hours): 27.9 mmol | Urinary Sodium Excretion (aldosterone receptors [2]; 16 to 24 hours): 11.8 mmol | Urinary Potassium Excretion (aldosterone receptors [2]; −9 to 0 hours): 26.9 mmol | Urinary Sodium Excretion (aldosterone receptors [2]; −9 to 0 hours): 29.1 mmol | urinary log10 (sodium/potassium) values (aldosterone receptors [3]): no sustained increase | 24 hour mean ΔDBP (blood pressure): −8.9 mmHg | 24 hour mean ΔSBP (blood pressure): −15.7 mmHg | Primary Efficacy Variable: ΔDBP at trough (sitting) (blood pressure): −9.5 mmHg | ΔSBP at trough (sitting) (blood pressure): −17.6 mmHg | Plasma Renin Active Mean Change From Baseline (renin and aldosterone; 50 mg BID): 13.3 mU/L | Serum Aldosterone Mean Change From Baseline (renin and aldosterone; 50 mg BID): 19.2 ng/dL | aldosterone compared to placebo (renin and aldosterone; eight weeks of dosing): increases | total and active renin levels (renin and aldosterone; eight weeks of dosing): increases
